Measurements as given in patent US20070128217A1 (priority 2003, published 2007).

Tests used:
[1] = tested on: recombinant human anti-SARS-CoV antibody 03-018; type: binding; parameters: Binding of antibody 03-018 to linear peptides of the N protein of SARS-CoV Urbani / Binding of antibody 03-018 to looped/cyclic peptides of the N protein of SARS-CoV Urbani: unit not given here
[2] = tested on: control sera (pooled serum of ten healthy LUMC hospital workers; commercial negative donor pooled serum from the Dutch bloodbank); type: binding, human; parameters: Binding of Control serum LUMC to linear peptides / Binding of Control serum Blood-bank to linear peptides / Binding of Control serum LUMC to looped peptides / Binding of Control Serum Blood-Bank to Looped peptides / Binding of Control serum LUMC to linear peptides of the protein M of SARS-CoV Urbani / Binding of Control serum Blood-bank to linear peptides of the protein M of SARS-CoV Urbani / Binding of Control serum LUMC to looped peptides of the protein M of SARS-CoV Urbani / Binding of Control Serum Blood-Bank to Looped peptides of the protein M of SARS-CoV Urbani: unit not given here
[3] = tested on: rabbit serum obtained by immunizing a rabbit with the SARS-CoV strain Frankfurt 1; type: binding; parameters: Binding of a rabbit serum to linear peptides / Binding of a rabbit serum to looped peptides / Rabbit serum linear peptides / Rabbit serum looped peptides / Binding of a rabbit serum to linear peptides of protein N of SARS-CoV Urbani (Rabbit serum linear peptides) / Binding of a rabbit serum to looped/cyclic peptides of protein N of SARS-CoV Urbani (Rabbit serum looped peptides): unit not given here
[4] = tested on: antibodies in sera from SARS patients (sera 1a, 1b, 2, 6, 37, 62, London, SARS-yellow, SARS-green); type: binding, human; parameters: Binding of serum 6 to linear peptides of protein X1 of SARS-CoV Urbani / Binding of serum 37 to linear peptides of protein X1 of SARS-CoV Urbani / Binding of serum 6 to looped/cyclic peptide (PEPSCAN-ELISA) / Binding of serum 37 to looped/cyclic peptide (PEPSCAN-ELISA) / Binding of serum 37 to looped/cyclic peptides of protein X1 of SARS-CoV Urbani / Binding of serum 6 to linear peptides of protein X2 / Binding of serum 37 to linear peptides of protein X2 / Binding of serum 37 to looped/cyclic peptides of protein X2 of SARS-CoV Urbani / Binding of serum 6 to linear peptides of protein M of SARS-CoV Urbani / Binding of serum 37 to linear peptides of protein M of SARS-CoV Urbani / Binding of serum 6 to looped/cyclic peptides of protein M of SARS-CoV Urbani / Binding of serum 37 to looped/cyclic peptides of protein M of SARS-CoV Urbani / Binding of serum 6 to linear peptides of protein X3 of SARS-CoV Urbani / Binding of serum 37 to linear peptides of protein X3 of SARS-CoV Urbani / Binding of serum 37 to looped/cyclic peptides of protein X3 of SARS-CoV Urbani / Binding of serum 6 to linear peptides of protein X4 of SARS-CoV Urbani / Binding of serum 37 to linear peptides of protein X4 of SARS-CoV Urbani / Binding of serum 37 to looped/cyclic peptides of protein X4 of SARS-CoV Urbani / Binding of serum 6 to linear peptides of protein X5 of SARS-CoV Urbani / Binding of serum 37 to linear peptides of protein X5 of SARS-CoV Urbani / Binding of serum 37 to looped/cyclic peptides of protein X5 of SARS-CoV Urbani / Binding of serum 6 to linear peptides of protein N of SARS-CoV Urbani / Binding of serum 37 to linear peptides of protein N of SARS-CoV Urbani / Binding of serum 6 to linear peptide (PEPSCAN-ELISA) / Binding of serum 1a to looped/cyclic peptides of protein N of SARS-CoV Urbani / Binding of serum 1b to looped/cyclic peptides of protein N of SARS-CoV Urbani / Binding of serum 2 to looped/cyclic peptides of protein N of SARS-CoV Urbani / Binding of serum 6 to looped/cyclic peptides of protein N of SARS-CoV Urbani / Binding of serum 37 to looped/cyclic peptides of protein N of SARS-CoV Urbani / Binding of serum 62 to looped/cyclic peptides of protein N of SARS-CoV Urbani / Binding of serum London to looped/cyclic peptides of protein N of SARS-CoV Urbani / Binding of serum SARS-green to looped/cyclic peptides of protein N of SARS-CoV Urbani: unit not given here

Sequence: IVWVATEGALNTPKD
- Binding of antibody 03-018 to linear peptides of the N protein of SARS-CoV Urbani [1]: 0.1
- Binding of antibody 03-018 to looped/cyclic peptides of the N protein of SARS-CoV Urbani [1]: 0.2
- Binding of Control Serum Blood-Bank to Looped peptides [2]: 0.4
- Binding of Control serum Blood-bank to linear peptides [2]: 0.8
- Binding of Control serum LUMC to linear peptides [2]: 0.8
- Binding of Control serum LUMC to looped peptides [2]: 0.5
- Binding of a rabbit serum to linear peptides of protein N of SARS-CoV Urbani (Rabbit serum linear peptides) [3]: 0.1
- Binding of a rabbit serum to looped/cyclic peptides of protein N of SARS-CoV Urbani (Rabbit serum looped peptides) [3]: 0.2
- Binding of serum 1a to linear peptides of protein N of SARS-CoV Urbani [4]: 0.2
- Binding of serum 1a to looped/cyclic peptides of protein N of SARS-CoV Urbani [4]: 0.3
- Binding of serum 1b to linear peptides of protein N of SARS-CoV Urbani [4]: 0.1
- Binding of serum 1b to looped/cyclic peptides of protein N of SARS-CoV Urbani [4]: 0.2
- Binding of serum 2 to linear peptides of protein N of SARS-CoV Urbani [4]: 0.2
- Binding of serum 2 to looped/cyclic peptides of protein N of SARS-CoV Urbani [4]: 0.3
- Binding of serum 6 to linear peptides of protein N of SARS-CoV Urbani [4]: 0.2
- Binding of serum 6 to looped/cyclic peptides of protein N of SARS-CoV Urbani [4]: 0.1
- Binding of serum 37 to linear peptides of protein N of SARS-CoV Urbani [4]: 0.7
- Binding of serum 37 to looped/cyclic peptides of protein N of SARS-CoV Urbani [4]: 0.5
- Binding of serum 62 to linear peptides of protein N of SARS-CoV Urbani [4]: 0.7
- Binding of serum 62 to looped/cyclic peptides of protein N of SARS-CoV Urbani [4]: 0.3
- Binding of serum London to linear peptides of protein N of SARS-CoV Urbani [4]: 0.6
- Binding of serum London to looped/cyclic peptides of protein N of SARS-CoV Urbani [4]: 0.3
- Binding of serum SARS-green to linear peptides of protein N of SARS-CoV Urbani [4]: 0.3
- Binding of serum SARS-green to looped/cyclic peptides of protein N of SARS-CoV Urbani [4]: 0.9
- Binding of serum SARS-yellow to linear peptides of protein N of SARS-CoV Urbani [4]: 0.6
- Binding of serum SARS-yellow to looped/cyclic peptides of protein N of SARS-CoV Urbani [4]: 0.2

Sequence: KEGIVWVATEGALNT
- Binding of antibody 03-018 to linear peptides of the N protein of SARS-CoV Urbani [1]: 0.1
- Binding of antibody 03-018 to looped/cyclic peptides of the N protein of SARS-CoV Urbani [1]: 0.2
- Binding of Control Serum Blood-Bank to Looped peptides [2]: 0.6
- Binding of Control serum Blood-bank to linear peptides [2]: 0.7
- Binding of Control serum LUMC to linear peptides [2]: 0.6
- Binding of Control serum LUMC to looped peptides [2]: 0.7
- Binding of a rabbit serum to linear peptides of protein N of SARS-CoV Urbani (Rabbit serum linear peptides) [3]: 0.1
- Binding of a rabbit serum to looped/cyclic peptides of protein N of SARS-CoV Urbani (Rabbit serum looped peptides) [3]: 0.4
- Binding of serum 1a to linear peptides of protein N of SARS-CoV Urbani [4]: 0.2
- Binding of serum 1a to looped/cyclic peptides of protein N of SARS-CoV Urbani [4]: 0.3
- Binding of serum 1b to linear peptides of protein N of SARS-CoV Urbani [4]: 0.1
- Binding of serum 1b to looped/cyclic peptides of protein N of SARS-CoV Urbani [4]: 0.2
- Binding of serum 2 to linear peptides of protein N of SARS-CoV Urbani [4]: 0.2
- Binding of serum 2 to looped/cyclic peptides of protein N of SARS-CoV Urbani [4]: 0.4
- Binding of serum 6 to linear peptides of protein N of SARS-CoV Urbani [4]: 0.2
- Binding of serum 6 to looped/cyclic peptides of protein N of SARS-CoV Urbani [4]: 0.2
- Binding of serum 37 to linear peptides of protein N of SARS-CoV Urbani [4]: 0.7
- Binding of serum 37 to looped/cyclic peptides of protein N of SARS-CoV Urbani [4]: 0.6
- Binding of serum 62 to linear peptides of protein N of SARS-CoV Urbani [4]: 0.6
- Binding of serum 62 to looped/cyclic peptides of protein N of SARS-CoV Urbani [4]: 0.5
- Binding of serum London to linear peptides of protein N of SARS-CoV Urbani [4]: 0.4
- Binding of serum London to looped/cyclic peptides of protein N of SARS-CoV Urbani [4]: 0.4
- Binding of serum SARS-green to linear peptides of protein N of SARS-CoV Urbani [4]: 0.5
- Binding of serum SARS-green to looped/cyclic peptides of protein N of SARS-CoV Urbani [4]: 0.3
- Binding of serum SARS-yellow to linear peptides of protein N of SARS-CoV Urbani [4]: 0.7
- Binding of serum SARS-yellow to looped/cyclic peptides of protein N of SARS-CoV Urbani [4]: 0.5

Sequence: KGQQQQGQTVTKKSA
- Binding of antibody 03-018 to linear peptides of the N protein of SARS-CoV Urbani [1]: 0.1
- Binding of antibody 03-018 to looped/cyclic peptides of the N protein of SARS-CoV Urbani [1]: 0.2
- Binding of Control Serum Blood-Bank to Looped peptides [2]: 0.4
- Binding of Control serum Blood-bank to linear peptides [2]: 1.0
- Binding of Control serum LUMC to linear peptides [2]: 0.9
- Binding of Control serum LUMC to looped peptides [2]: 0.4
- Binding of a rabbit serum to linear peptides of protein N of SARS-CoV Urbani (Rabbit serum linear peptides) [3]: 0.2
- Binding of a rabbit serum to looped/cyclic peptides of protein N of SARS-CoV Urbani (Rabbit serum looped peptides) [3]: 0.0
- Binding of serum 1a to linear peptide (PEPSCAN-ELISA) [4]: 0.3
- Binding of serum 1a to looped/cyclic peptides of protein N of SARS-CoV Urbani [4]: 0.2
- Binding of serum 1b to linear peptide (PEPSCAN-ELISA) [4]: 0.1
- Binding of serum 1b to looped/cyclic peptides of protein N of SARS-CoV Urbani [4]: 0.1
- Binding of serum 2 to linear peptide (PEPSCAN-ELISA) [4]: 0.2
- Binding of serum 2 to looped/cyclic peptides of protein N of SARS-CoV Urbani [4]: 0.2
- Binding of serum 6 to linear peptide (PEPSCAN-ELISA) [4]: 0.3
- Binding of serum 6 to looped/cyclic peptides of protein N of SARS-CoV Urbani [4]: 0.1
- Binding of serum 37 to linear peptide (PEPSCAN-ELISA) [4]: 0.7
- Binding of serum 37 to looped/cyclic peptides of protein N of SARS-CoV Urbani [4]: 0.4
- Binding of serum 62 to linear peptide (PEPSCAN-ELISA) [4]: 0.8
- Binding of serum 62 to looped/cyclic peptides of protein N of SARS-CoV Urbani [4]: 0.3
- Binding of serum London to linear peptide (PEPSCAN-ELISA) [4]: 0.6
- Binding of serum London to looped/cyclic peptides of protein N of SARS-CoV Urbani [4]: 0.3
- Binding of serum SARS-green to linear peptide (PEPSCAN-ELISA) [4]: 0.4
- Binding of serum SARS-green to looped/cyclic peptides of protein N of SARS-CoV Urbani [4]: 0.0
- Binding of serum SARS-yellow to linear peptide (PEPSCAN-ELISA) [4]: 0.6
- Binding of serum SARS-yellow to looped/cyclic peptides of protein N of SARS-CoV Urbani [4]: 0.1
